# From paper PMC11864979, “First-in-class ultralong-target-residence-time p38α inhibitors as a mitosis-targeted therapy for colorectal cancer” (Nature Cancer, 2025)
# Like-named read-outs stand apart in the source and are kept apart here.
# How the values were obtained:
# Test in all cases: selectivity profiling in a panel of 340 wild-type kinases (Reaction Biology Europe)
# Type in all cases: binding
# 340 wild-type kinases [1] = target: T1, 340 wild-type kinases (Homo sapiens, UniProt O60674)
# T1 construct: purchased Reaction Biology Europe
# 340 wild-type kinases [2] = target: T2, 340 wild-type kinases (Homo sapiens, UniProt P34947)
# T2 construct: purchased Reaction Biology Europe
# 340 wild-type kinases [3] = target: T3, 340 wild-type kinases (Homo sapiens, UniProt P52564, S207D/T211D)
# T3 construct: purchased Reaction Biology Europe
# T3 sequence (P52564 1-334 S207D/T211D): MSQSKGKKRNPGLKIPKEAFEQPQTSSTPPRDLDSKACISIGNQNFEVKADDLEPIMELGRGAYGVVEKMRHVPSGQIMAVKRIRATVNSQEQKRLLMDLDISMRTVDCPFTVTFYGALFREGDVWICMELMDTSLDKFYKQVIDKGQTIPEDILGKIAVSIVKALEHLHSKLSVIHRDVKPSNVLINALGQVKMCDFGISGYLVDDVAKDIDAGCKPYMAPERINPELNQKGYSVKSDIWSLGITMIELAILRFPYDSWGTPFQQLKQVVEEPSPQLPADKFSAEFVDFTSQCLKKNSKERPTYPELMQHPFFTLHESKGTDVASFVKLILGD
# 340 wild-type kinases [4] = target: T4, 340 wild-type kinases (Homo sapiens, UniProt Q13237)
# T4 construct: purchased Reaction Biology Europe
# T4 sequence (Q13237 1-762): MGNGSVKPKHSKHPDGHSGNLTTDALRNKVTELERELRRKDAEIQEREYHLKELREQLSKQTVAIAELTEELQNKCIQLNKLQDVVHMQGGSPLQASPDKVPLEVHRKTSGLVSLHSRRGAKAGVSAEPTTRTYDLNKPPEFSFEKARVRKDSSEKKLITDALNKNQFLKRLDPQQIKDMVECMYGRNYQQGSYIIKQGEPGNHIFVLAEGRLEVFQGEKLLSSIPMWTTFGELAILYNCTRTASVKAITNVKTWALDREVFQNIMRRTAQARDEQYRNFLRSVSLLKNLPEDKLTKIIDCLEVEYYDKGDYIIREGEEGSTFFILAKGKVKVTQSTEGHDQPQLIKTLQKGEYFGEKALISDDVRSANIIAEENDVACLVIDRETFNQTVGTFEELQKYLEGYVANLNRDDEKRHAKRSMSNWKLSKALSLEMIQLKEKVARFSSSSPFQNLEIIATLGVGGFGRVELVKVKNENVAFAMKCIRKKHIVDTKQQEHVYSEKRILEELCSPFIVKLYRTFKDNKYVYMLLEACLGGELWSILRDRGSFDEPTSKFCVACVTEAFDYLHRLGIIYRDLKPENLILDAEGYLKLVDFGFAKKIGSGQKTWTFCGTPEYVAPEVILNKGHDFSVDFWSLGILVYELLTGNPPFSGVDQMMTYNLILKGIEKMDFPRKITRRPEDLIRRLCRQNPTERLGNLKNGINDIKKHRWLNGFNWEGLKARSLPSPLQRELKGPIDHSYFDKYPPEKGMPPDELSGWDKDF
# 340 wild-type kinases [5] = target: T5, 340 wild-type kinases (Homo sapiens, UniProt Q8N5S9)
# T5 construct: purchased Reaction Biology Europe
# 340 wild-type kinases [6] = target: T6, 340 wild-type kinases (Homo sapiens, UniProt Q99986)
# T6 construct: purchased Reaction Biology Europe
# T6 sequence (Q99986 1-396): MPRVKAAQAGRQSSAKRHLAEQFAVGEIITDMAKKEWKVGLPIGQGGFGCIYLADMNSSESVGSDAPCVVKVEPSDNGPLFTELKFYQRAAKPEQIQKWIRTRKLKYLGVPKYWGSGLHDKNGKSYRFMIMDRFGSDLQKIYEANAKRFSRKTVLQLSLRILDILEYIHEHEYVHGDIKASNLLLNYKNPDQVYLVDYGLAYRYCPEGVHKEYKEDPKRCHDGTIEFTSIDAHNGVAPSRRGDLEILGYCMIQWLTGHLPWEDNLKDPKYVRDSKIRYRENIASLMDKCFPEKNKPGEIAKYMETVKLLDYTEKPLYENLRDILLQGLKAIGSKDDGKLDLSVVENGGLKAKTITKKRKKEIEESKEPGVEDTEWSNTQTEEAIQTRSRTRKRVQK
# T1 sequence (O60674 whole entry): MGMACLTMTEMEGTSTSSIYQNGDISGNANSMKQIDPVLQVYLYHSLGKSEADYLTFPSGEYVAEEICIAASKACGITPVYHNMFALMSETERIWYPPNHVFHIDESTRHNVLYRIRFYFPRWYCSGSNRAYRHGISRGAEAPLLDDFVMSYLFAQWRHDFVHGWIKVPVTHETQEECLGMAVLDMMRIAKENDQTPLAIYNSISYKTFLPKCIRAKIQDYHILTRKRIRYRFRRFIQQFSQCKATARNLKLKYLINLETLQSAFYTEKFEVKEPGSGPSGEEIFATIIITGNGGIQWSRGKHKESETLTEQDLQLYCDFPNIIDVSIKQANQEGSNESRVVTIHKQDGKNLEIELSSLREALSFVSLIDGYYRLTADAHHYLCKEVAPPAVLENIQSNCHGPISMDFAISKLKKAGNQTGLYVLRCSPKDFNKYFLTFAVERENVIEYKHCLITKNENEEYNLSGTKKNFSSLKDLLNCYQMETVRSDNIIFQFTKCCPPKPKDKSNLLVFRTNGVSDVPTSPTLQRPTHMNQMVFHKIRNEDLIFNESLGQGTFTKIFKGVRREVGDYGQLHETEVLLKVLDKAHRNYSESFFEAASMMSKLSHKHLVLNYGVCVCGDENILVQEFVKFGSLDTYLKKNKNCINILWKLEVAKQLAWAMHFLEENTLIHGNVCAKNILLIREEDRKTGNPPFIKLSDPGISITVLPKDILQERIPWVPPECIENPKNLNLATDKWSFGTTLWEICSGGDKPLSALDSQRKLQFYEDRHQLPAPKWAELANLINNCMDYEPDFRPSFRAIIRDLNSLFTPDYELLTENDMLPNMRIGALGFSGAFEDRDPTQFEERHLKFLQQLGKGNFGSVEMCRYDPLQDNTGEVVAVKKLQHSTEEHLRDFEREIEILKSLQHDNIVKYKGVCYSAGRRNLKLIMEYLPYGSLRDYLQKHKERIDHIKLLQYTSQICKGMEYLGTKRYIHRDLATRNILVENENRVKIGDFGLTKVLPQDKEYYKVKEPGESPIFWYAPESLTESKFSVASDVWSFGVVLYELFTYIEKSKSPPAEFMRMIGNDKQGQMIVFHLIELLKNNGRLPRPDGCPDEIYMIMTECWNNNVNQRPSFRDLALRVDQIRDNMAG
# T2 sequence (P34947 whole entry): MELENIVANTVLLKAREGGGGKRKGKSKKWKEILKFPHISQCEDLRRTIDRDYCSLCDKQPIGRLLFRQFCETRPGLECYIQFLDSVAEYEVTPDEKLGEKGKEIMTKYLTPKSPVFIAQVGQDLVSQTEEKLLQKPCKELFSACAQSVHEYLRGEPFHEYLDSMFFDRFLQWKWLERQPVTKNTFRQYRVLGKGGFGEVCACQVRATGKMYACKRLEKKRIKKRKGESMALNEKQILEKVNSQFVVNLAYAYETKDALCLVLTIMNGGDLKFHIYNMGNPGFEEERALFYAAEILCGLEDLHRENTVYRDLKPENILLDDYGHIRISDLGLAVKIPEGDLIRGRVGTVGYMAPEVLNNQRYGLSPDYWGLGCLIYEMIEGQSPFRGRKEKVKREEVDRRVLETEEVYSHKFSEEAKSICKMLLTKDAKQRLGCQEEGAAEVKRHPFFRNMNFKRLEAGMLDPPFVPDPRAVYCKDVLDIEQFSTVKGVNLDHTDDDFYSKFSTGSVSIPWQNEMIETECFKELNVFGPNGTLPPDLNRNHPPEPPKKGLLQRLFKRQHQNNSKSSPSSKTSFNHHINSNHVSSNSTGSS
# T5 sequence (Q8N5S9 whole entry): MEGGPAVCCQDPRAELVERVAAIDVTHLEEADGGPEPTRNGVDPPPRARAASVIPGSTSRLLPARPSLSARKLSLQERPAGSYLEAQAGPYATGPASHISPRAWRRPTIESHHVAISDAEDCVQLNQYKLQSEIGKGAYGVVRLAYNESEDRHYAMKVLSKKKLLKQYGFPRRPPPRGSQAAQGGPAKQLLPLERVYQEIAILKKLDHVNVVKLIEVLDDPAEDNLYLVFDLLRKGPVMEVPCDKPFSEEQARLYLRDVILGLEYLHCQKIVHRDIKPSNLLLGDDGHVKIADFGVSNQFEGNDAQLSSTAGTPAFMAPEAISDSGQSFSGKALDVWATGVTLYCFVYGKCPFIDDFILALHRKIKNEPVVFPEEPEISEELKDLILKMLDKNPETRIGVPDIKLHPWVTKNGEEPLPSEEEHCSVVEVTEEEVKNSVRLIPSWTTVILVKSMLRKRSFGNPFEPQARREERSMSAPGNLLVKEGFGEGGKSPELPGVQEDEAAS
compound,measurement,setting,value
CNC(=O)c1ccc2c(c1)C(=O)c1ccc(Nc3ccc(F)c(NC(=O)C4CC4)c3)cc1CC2 [Compound 2015],remaining activity at 0.2 µM,"340 wild-type kinases [1]; 0.2 µM 2015, read-out: JAK2 residual activity",104%
same,remaining activity at 1 µM,"340 wild-type kinases [1]; 1 µM 2015, read-out: JAK2 residual activity",102%
same,remaining activity at 0.2 µM,"340 wild-type kinases [1]; JAK2, 0.2 µM, read-out: residual activity",104%
same,remaining activity at 1 µM,"340 wild-type kinases [1]; JAK2, 1 µM, read-out: residual activity",102%
same,remaining activity at 0.2 µM,"340 wild-type kinases [2]; 0.2 µM 2015, read-out: GRK5 residual activity",106%
same,remaining activity at 1 µM,"340 wild-type kinases [2]; 1 µM 2015, read-out: GRK5 residual activity",114%
same,remaining activity at 0.2 µM,"340 wild-type kinases [2]; GRK5, 0.2 µM, read-out: residual activity",106%
same,remaining activity at 1 µM,"340 wild-type kinases [2]; GRK5, 1 µM, read-out: residual activity",114%
same,remaining activity at 0.2 µM,"340 wild-type kinases [3]; 0.2 µM 2015, read-out: MKK6 SDTD residual activity",83.9%
same,remaining activity at 1 µM,"340 wild-type kinases [3]; 1 µM 2015, read-out: MKK6 SDTD residual activity",111%
same,remaining activity at 0.2 µM,"340 wild-type kinases [3]; MKK6 SDTD, 0.2 µM, read-out: residual activity",83.9%
same,remaining activity at 1 µM,"340 wild-type kinases [3]; MKK6 SDTD, 1 µM, read-out: residual activity",111%
same,remaining activity at 0.2 µM,"340 wild-type kinases [4]; 0.2 µM 2015, read-out: PRKG2 residual activity",112%
same,remaining activity at 1 µM,"340 wild-type kinases [4]; 1 µM 2015, read-out: PRKG2 residual activity",96.9%
same,remaining activity at 0.2 µM,"340 wild-type kinases [4]; PRKG2, 0.2 µM, read-out: residual activity",112%
same,remaining activity at 1 µM,"340 wild-type kinases [4]; PRKG2, 1 µM, read-out: residual activity",96.9%
same,remaining activity at 0.2 µM,"340 wild-type kinases [5]; 0.2 µM 2015, read-out: CAMKK1 residual activity",123%
same,remaining activity at 1 µM,"340 wild-type kinases [5]; 1 µM 2015, read-out: CAMKK1 residual activity",106%
same,remaining activity at 0.2 µM,"340 wild-type kinases [5]; CAMKK1, 0.2 µM, read-out: residual activity",123%
same,remaining activity at 1 µM,"340 wild-type kinases [5]; CAMKK1, 1 µM, read-out: residual activity",106%
same,remaining activity at 0.2 µM,"340 wild-type kinases [6]; 0.2 µM 2015, read-out: VRK1 residual activity",96.8%
same,remaining activity at 1 µM,"340 wild-type kinases [6]; 1 µM 2015, read-out: VRK1 residual activity",87.2%
same,remaining activity at 0.2 µM,"340 wild-type kinases [6]; VRK1, 0.2 µM, read-out: residual activity",96.8%
same,remaining activity at 1 µM,"340 wild-type kinases [6]; VRK1, 1 µM, read-out: residual activity",87.2%
